The record followed here is patent US10519153B2, “Fused imidazo-piperidine JAK inhibitors” (THERAVANCE BIOPHARMA R&D IP, LLC, priority 2017, dated 2019).

This experiment concerns IL-6 stimulated pSTAT3 in CD3+ T cells. In words: Inhibition of IL-6 stimulated pSTAT3 in CD3+ T cells. Format: cell-based, human. The text has this: Assay 10: Cellular JAK Potency Assay: Inhibition of IL-6 Stimulated pSTAT3 in CD3+ T Cells
A protocol analogous to that of Assay 9 was used to determine the potency of the test compound for inhibition of interleuken-6 (IL-6) stimulated STAT3 phosphorylation. An Alexa Fluor 647 conjugated anti-pSTAT3 antibody (pY705, Clone 4/P, BD Biosciences) was used to detect STAT3 phosphorylation.

SMILES strings stand for the structures.

With `CCCN1Cc2[nH]c(-c3n[nH]c4cc(-c5cc(F)c(O)cc5CC)ccc34)nc2C[C@H]1C(=O)N1C[C@@H]2C[C@H]1CN2C` [Example 1, ((S)-2-(6-(2-ethyl-5-fluoro-4-hydroxyphenyl)-1H-indazol-3-yl)-5-propyl-4,5,6,7-tetrahydro-3H-imidazo[4,5-c]pyridin-6-yl)((1S,4S)-5-methyl-2,5-diazabicyclo-[2.2.1]heptan-2-yl)methanone], the “inhibition of IL-6 signaling (in words)” value is “inhibit IL-6 signaling”.

Take `CCc1cc(O)c(F)cc1-c1ccc2c(-c3nc4c([nH]3)CN(C(C)C)[C@H](C(=O)N3CC[C@H](N(C)C)C3)C4)n[nH]c2c1` [Example 3]: the “inhibition of IL-6 signaling (in words)” value was “inhibit IL-6 signaling”.
